By MIC is commonly meant the lowest concentration that inhibits growth of the organism.

For 2 compounds, MIC and Solubility results are on record in patent publication US9469863B2, “Aminoglycoside antibiotics, process for producing the same, and pharmaceutical use thereof” (MEIJI SEIKA KAISHA, LTD., priority 2007, dated 2016).

Series [1] deals with Staphylococcus epidermidis ATCC14990. Nature of the series: Antimicrobial activity, MIC by agar dilution method. The format is cell-based. Particulars: Mueller-Hinton agar, 37° C., 18 to 20 hr. On the procedure: (§1) The antimicrobial activity of 2-hydroxykanamycin B and 2-hydroxykanamycin C was measured as the minimum inhibitory concentration (MIC) by an agar dilution method. Test bacteria which had been cultivated overnight in a growth medium were adjusted to 10^6 cells/ml, and one platinum loop thereof was inoculated in a Mueller-Hinton agar medium containing 2-hydroxykanamycin B or 2-hydroxykanamycin C (manufactured by Difco Laboratories Inc.), followed by cultivation at 37° C. for 18 to 20 hr.

The subject of series [2] is Pseudomonas aeruginosa PA01. Described as above. It is filed as cell-based. The settings on record: Mueller-Hinton agar, 37° C., 18 to 20 hr. On the procedure: as §1
In series [3] the test system is Enterococcus faecalis ATCC29212. Described as above. It is filed as cell-based. The settings on record: Mueller-Hinton agar, 37° C., 18 to 20 hr. On the procedure: as §1
In series [4] the test system is Acinetobacter calcoaceticus ATCC23055. The series is described as above. It is filed as cell-based. The settings on record: Mueller-Hinton agar, 37° C., 18 to 20 hr. On the procedure:
as §1

Series [5] relates to Enterococcus faecium ATCC19434. The series is described as above. It is filed as cell-based. Particulars: Mueller-Hinton agar, 37° C., 18 to 20 hr. On the procedure: as §1
For series [6], the system named is Staphylococcus aureus 209P JC-1. The series is described as above. It is filed as cell-based. The settings on record: Mueller-Hinton agar, 37° C., 18 to 20 hr. On the procedure:
as §1

Series [7] deals with Escherichia coli ATCC25922. The description is as above. The settings on record: Mueller-Hinton agar, 37° C., 18 to 20 hr. The format is cell-based. On the procedure: as §1
Series [8] deals with Salmonella typhimurium ATCC13311. The series is described as above. The format is cell-based. The settings on record: Salmonella enterica, Mueller-Hinton agar, 37° C., 18 to 20 hr. On the procedure:
as §1

For series [9], the system named is Staphylococcus aureus ATCC29213. Described as above. It is filed as cell-based. The settings on record: Mueller-Hinton agar, 37° C., 18 to 20 hr. On the procedure:
as §1

Series [10] deals with Bacillus subtilis ATCC6633. The description is as above. The format is cell-based. Particulars: Mueller-Hinton agar, 37° C., 18 to 20 hr. On the procedure:
as §1

Series [11] is described as follows: Physicochemical properties: solubility.

≈ marks a conversion by molar mass, not a printed value. Bounds are passed on as bounds.

Consider `NCC1OC(OC2C(N)C(O)C(N)C(OC3OC(CO)C(O)C(N)C3O)C2O)C(N)C(O)C1O` (centres unmarked) [2-Hydroxykanamycin B, 2-hydroxykanamycin B], for which the minimal inhibitory concentration (MIC) in series [1] was 1 µg/mL (≈ 2 µM); in [2], 128 µg/mL (≈ 256 µM); in series [3], 64 µg/mL (≈ 128 µM); in [4], 1 µg/mL (≈ 2 µM); in series [5] it was 64 µg/mL (≈ 128 µM); in series [6], 2 µg/mL (≈ 4 µM). Moreover, the MIC in series [7] was 4 µg/mL (≈ 8.01 µM); in series [8] it was 1 µg/mL (≈ 2 µM); in series [9] it was 2 µg/mL (≈ 4 µM); in series [10], 0.5 µg/mL (≈ 1 µM). The Solubility result in series [11] (in chloroform) is recorded as “insoluble”; in [11] (in ethyl acetate), “insoluble”; in [11] (in water) it was “soluble”.

Consider `NC1C(O)C(CO)OC(OC2C(N)C(O)C(N)C(OC3OC(CO)C(O)C(O)C3N)C2O)C1O` (centres unmarked) [2-Hydroxykanamycin C, 2-hydroxykanamycin C], for which the MIC was 32 µg/mL (≈ 63.9 µM) in series [1]; more than 128 µg/mL in [2]; more than 128 µg/mL in series [3]; 32 µg/mL (≈ 63.9 µM) in [4]; more than 128 µg/mL in series [5]; 128 µg/mL (≈ 256 µM) in [6]. The MIC in [7] was 128 µg/mL (≈ 256 µM); in series [8], 32 µg/mL (≈ 63.9 µM); in series [9] it was 128 µg/mL (≈ 256 µM); in series [10], 16 µg/mL (≈ 32 µM). The Solubility entry in series [11] (in chloroform) is on record as “insoluble”; in [11] (in ethyl acetate) it was “insoluble”; in series [11] (in water) it was “soluble”.
